{"source": "patent US20090028991A1", "about": "“Lactobacillus buchneri strain LN1284 and its use to improve aerobic stability of silage” (Pioneer Hi-Bred International, Inc., priority 2006, published 2009)", "tested_on": "grass silage", "test": "Aerobic stability of grass silage (PVC silos, method of Honig)", "parameters": "species or system ryegrass", "method": "Second cut ryegrass was harvested at PLNC. The grass was determined to have an approximate dry matter of 35%.\nInoculation: Individual strains were supplied as fresh grown overnight culture. Cultures were adjusted to a standard concentration of 5.0×10^7 CFU/mL and applied using a syringe at a rate of 2.2 mL/kg of forage. The application rate for all strains was 1.1×10^5 CFU/g forage. Propionic acid (88%) was applied at a rate of 4.4 mL/kg fresh forage.\nPVC Silos: PVC silos were filled at a packing density of 0.288 kg DM/silo (100 kg DM/m^3); approximately 0.82-0.95 kg/silo. Silos were air infused for 24 hours on days 28 and 42, and opened after 50-60 days of ensiling.\nAerobic Stability: The method of Honig (Proc. Of the Eurobac. Conf., P. Lingvall and S. Lindgren (ed.) (12-16 Aug. 1986) Swed. Univ. of Agric. Sci. Grass and Forage Report No. 3-1990. Pp. 76-81. Uppsala, Sweden.) was used for measuring aerobic stability (see Table 2). ROT is defined as the time, in hours, for the silage to heat 1.7° C. after exposure to air. Cumm_DD is the integral value of the area between the time ROT is attained and the end of the experiment. Aerobic dry matter loss (% dry matter) was determined relating the increase in temperature and the time to energy losses occurring in the silage.", "data": [{"molecule": "CCC(=O)O", "note": "[Propionic Acid, Propionic acid]", "values": [{"measurement": "Aerobic deterioration versus control grass silages", "result": "significantly less aerobic deterioration than the control"}]}]}
